Results: patent US20060069132A1, “Azolecarboxamide herbicides” (priority 2004, published 2006)

How the values were obtained:
[1] = tested on: yellow nutsedge; assay: Test C pre-/postemergence herbicide test; type: in vivo, Cyperus esculentus; conditions: preemergence; for Plant response rating (0 = no effect, 100 = complete control), Nutsedge, Yellow: 125 g ai/ha
Method in brief: (§1)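 Seeds were planted and sprayed preemergence with test chemicals in a non-phytotoxic solvent mixture containing surfactant; postemergence treatments went onto plants 2 to 18 cm tall (1- to 4-leaf stage). After 12 to 14 days in a greenhouse, injury was rated visually against untreated controls on a 0–100 scale.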

[2] = tested on: barnyardgrass; assay: Test C flooded paddy test; type: in vivo, Echinochloa crus-galli; conditions: for Plant response rating, Barnyardgrass: 500 g ai/ha, visual rating after 12 to 14 days
Method in brief: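 Postemergence sprays applied to plants 2 to 18 cm tall (1- to 4-leaf stage); paddy species grown to 2-leaf stage under flooding. After 12 to 14 days in greenhouse, visual rating versus untreated controls on 0–100 scale (0 no effect, 100 complete control).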

[3] = tested on: morningglory; assay: Test C pre-/postemergence herbicide test; type: in vivo, Ipomoea coccinea; design: key to Plant response rating, Morningglory: 0 = no effect, 100 = complete control; conditions: preemergence; for Plant response rating (0 = no effect, 100 = complete control), Morningglory: 125 g ai/ha
Method in brief: as §1

[4] = tested on: common (oilseed) sunflower; assay: Test C pre-/postemergence herbicide test; type: in vivo, Helianthus annuus; conditions: preemergence; for Plant response rating (0 = no effect, 100 = complete control), Sunflower: 125 g ai/ha
Method in brief: as §1

[5] = tested on: bermudagrass; assay: Test C pre-/postemergence herbicide test; type: in vivo, Cynodon dactylon; conditions: preemergence; for Plant response rating (0 = no effect, 100 = complete control), Bermudagrass: 125 g ai/ha
Method in brief: as §1

[6] = tested on: soybean; assay: Test C pre-/postemergence herbicide test; type: in vivo, Glycine max; conditions: preemergence; for Plant response rating (0 = no effect, 100 = complete control), Soybean: 125 g ai/ha
Method in brief: as §1

[7] = tested on: pigweed; assay: Test C pre-/postemergence herbicide test; type: in vivo, Amaranthus retroflexus; conditions: preemergence; for Plant response rating (0 = no effect, 100 = complete control), Pigweed: 125 g ai/ha
Method in brief: as §1

[8] = tested on: giant foxtail; assay: Test C pre-/postemergence herbicide test; type: in vivo, Setaria faberi; conditions: preemergence; for Plant response rating (0 = no effect, 100 = complete control), Foxtail, Giant: 125 g ai/ha
Method in brief: as §1

[9] = tested on: velvetleaf; assay: Test C pre-/postemergence herbicide test; type: in vivo, Abutilon theophrasti; conditions: preemergence; for Plant response rating (0 = no effect, 100 = complete control), Velvetleaf: 125 g ai/ha
Method in brief: as §1

[10] = tested on: cocklebur; assay: Test C pre-/postemergence herbicide test; type: in vivo, Xanthium strumarium; conditions: preemergence; for Plant response rating (0 = no effect, 100 = complete control), Cocklebur: 125 g ai/ha
Method in brief: as §1

[11] = tested on: smallflower umbrella sedge; assay: Test C flooded paddy test; type: in vivo, Cyperus difformis; conditions: for Plant response rating, Sedge, Umbrella: 500 g ai/ha, visual rating after 12 to 14 days
[12] = 500 g ai/ha, scale 0 to 100 (0 no effect, 100 complete control), visual, 12 to 14 days
[13] = 62 g ai/ha, scale 0 to 100 (0 no effect, 100 complete control)
[14] = 125 g ai/ha, scale 0 to 100 (0 no effect, 100 complete control)
[15] = 250 g ai/ha, scale of 0 to 100, 0 is no effect, 100 is complete control
[16] = scale 0 to 100 (0 no effect, 100 complete control)
[17] = 62 g ai/ha, scale 0 to 100, 0 no effect, 100 complete control

Cc1nn(C(C)(C)C)nc1C(=O)Nc1cccc(C(=O)N(C)C)c1 [Compound 391]
Plant response rating, Nutsedge, Yellow ([1]; 62 g ai/ha, scale 0 to 100): 5
Plant response rating (0 = no effect, 100 = complete control), Nutsedge, Yellow [1]: 70
Plant response rating, Nutsedge, Yellow ([1]; 250 g ai/ha, scale 0-100): 90
Plant response rating, Nutsedge, Yellow [1, 12]: 90
Barnyardgrass plant response rating [2, 13]: 55
Barnyardgrass plant response rating [2, 14]: 85
Barnyardgrass plant response rating [2, 15]: 90
Plant response rating, Barnyardgrass [2, 16]: 95
Plant response rating, Morningglory ([3]; 62 g ai/ha, scale 0 to 100): 100
Plant response rating (0 = no effect, 100 = complete control), Morningglory [3]: 100
Plant response rating, Morningglory ([3]; 250 g ai/ha, scale 0-100): 100
Plant response rating, Morningglory [3, 12]: 100
Plant response rating, Sunflower ([4]; 62 g ai/ha, scale 0 to 100): 50
Plant response rating (0 = no effect, 100 = complete control), Sunflower [4]: 95
Plant response rating, Sunflower ([4]; 250 g ai/ha, scale 0-100): 100
Plant response rating, Sunflower [4, 12]: 100
Plant response rating, Bermudagrass [5, 17]: 95
Plant response rating (0 = no effect, 100 = complete control), Bermudagrass [5]: 95
Plant response rating, Bermudagrass ([5]; 250 g ai/ha, scale 0-100): 95
Plant response rating, Bermudagrass [5, 12]: 95
Plant response rating, Soybean ([6]; 62 g ai/ha, scale 0 to 100): 95
Plant response rating (0 = no effect, 100 = complete control), Soybean [6]: 95
Plant response rating, Soybean ([6]; 250 g ai/ha, scale 0-100): 100
Plant response rating, Soybean [6, 12]: 100
Plant response rating, Pigweed ([7]; 62 g ai/ha, scale 0 to 100): 95
Plant response rating (0 = no effect, 100 = complete control), Pigweed [7]: 100
Plant response rating, Pigweed ([7]; 250 g ai/ha, scale 0-100): 100
Plant response rating, Pigweed [7, 12]: 100
Plant response rating, Foxtail, Giant ([8]; 62 g ai/ha, scale 0 to 100): 85
Plant response rating (0 = no effect, 100 = complete control), Foxtail, Giant [8]: 100
Plant response rating, Foxtail, Giant ([8]; 250 g ai/ha, scale 0-100): 100
Plant response rating, Foxtail, Giant [8, 12]: 100
Plant response rating, Velvetleaf ([9]; 62 g ai/ha, scale 0 to 100): 100
Plant response rating (0 = no effect, 100 = complete control), Velvetleaf [9]: 100
Plant response rating, Velvetleaf ([9]; 250 g ai/ha, scale 0-100): 100
Plant response rating, Velvetleaf [9, 12]: 100
Plant response rating, Cocklebur ([10]; 62 g ai/ha, scale 0 to 100): 20
Plant response rating (0 = no effect, 100 = complete control), Cocklebur [10]: 45
Plant response rating, Cocklebur ([10]; 250 g ai/ha, scale 0-100): 80
Plant response rating, Cocklebur [10, 12]: 80
Sedge, Umbrella plant response rating ([11]; 62 g ai/ha, scale 0 to 100): 80
Sedge, Umbrella plant response rating [11, 14]: 80
Sedge, Umbrella plant response rating [11, 15]: 85
Plant response rating, Sedge, Umbrella [11, 16]: 95

CCNC(=O)c1ccc(F)c(N(C(C)=O)C(=O)c2cc(C(C)(C)C)nn2CC)c1 [Compound 399]
Plant response rating, Nutsedge, Yellow ([1]; 62 g ai/ha, scale 0 to 100): 45
Plant response rating (0 = no effect, 100 = complete control), Nutsedge, Yellow [1]: 75
Plant response rating, Nutsedge, Yellow [1, 12]: 95
Barnyardgrass plant response rating [2, 13]: 50
Barnyardgrass plant response rating [2, 14]: 65
Barnyardgrass plant response rating [2, 15]: 85
Plant response rating, Barnyardgrass [2, 16]: 90
Plant response rating, Morningglory ([3]; 62 g ai/ha, scale 0 to 100): 15
Plant response rating (0 = no effect, 100 = complete control), Morningglory [3]: 25
Plant response rating, Morningglory [3, 12]: 75
Plant response rating, Sunflower ([4]; 62 g ai/ha, scale 0 to 100): 0
Plant response rating (0 = no effect, 100 = complete control), Sunflower [4]: 0
Plant response rating, Sunflower [4, 12]: 35
Plant response rating, Bermudagrass [5, 17]: 100
Plant response rating (0 = no effect, 100 = complete control), Bermudagrass [5]: 100
Plant response rating, Bermudagrass ([5]; 250 g ai/ha, scale 0-100): 100
Plant response rating, Bermudagrass [5, 12]: 100
Plant response rating, Soybean ([6]; 62 g ai/ha, scale 0 to 100): 75
Plant response rating (0 = no effect, 100 = complete control), Soybean [6]: 85
Plant response rating, Soybean [6, 12]: 100
Plant response rating, Pigweed ([7]; 62 g ai/ha, scale 0 to 100): 100
Plant response rating (0 = no effect, 100 = complete control), Pigweed [7]: 100
Plant response rating, Pigweed [7, 12]: 100
Plant response rating, Foxtail, Giant ([8]; 62 g ai/ha, scale 0 to 100): 95
Plant response rating (0 = no effect, 100 = complete control), Foxtail, Giant [8]: 100
Plant response rating, Foxtail, Giant ([8]; 250 g ai/ha, scale 0-100): 100
Plant response rating, Foxtail, Giant [8, 12]: 100
Plant response rating, Velvetleaf ([9]; 62 g ai/ha, scale 0 to 100): 95
Plant response rating (0 = no effect, 100 = complete control), Velvetleaf [9]: 100
Plant response rating, Velvetleaf [9, 12]: 100
Plant response rating, Cocklebur ([10]; 62 g ai/ha, scale 0 to 100): 15
Plant response rating (0 = no effect, 100 = complete control), Cocklebur [10]: 65
Plant response rating, Cocklebur ([10]; 250 g ai/ha, scale 0-100): 70
Plant response rating, Cocklebur [10, 12]: 80
Sedge, Umbrella plant response rating ([11]; 62 g ai/ha, scale 0 to 100): 65
Sedge, Umbrella plant response rating [11, 14]: 70
Sedge, Umbrella plant response rating [11, 15]: 85
Plant response rating, Sedge, Umbrella [11, 16]: 85
